Assay results taken from publication PMC11219871, “Epigenetic-based differentiation therapy for Acute Myeloid Leukemia” (Nature Communications, 2024).
Values joined by “and” are separate entries in the source; they are usually repeats but may differ in a detail not shown here. Identical values can stand only once.

Tests used:
ML-2 = test: Acetylome analysis (Acetyl-K enrichment, LC-MS/MS); assay type: cell-based, human; settings: for Acetyl-K sites regulated, Number, Histone proteins / Acetyl-K sites regulated, Number, Non-histone proteins / Acetyl-K sites regulated, Percentages, Histone proteins / Acetyl-K sites regulated, Percentages, Non-histone proteins: Fig 4G; for Acetyl-K sites: Down-regulated, % / Acetyl-K sites: Down-regulated, Number / Acetyl-K sites: Non-regulated, % / Acetyl-K sites: Non-regulated, Number / Acetyl-K sites: Quantified (total number) / Acetyl-K sites: Regulated, % / Acetyl-K sites: Regulated, Number / Acetyl-K sites: Up-regulated, % / Acetyl-K sites: Up-regulated, Number: ML-2 (Fig 4C); for Acetyl-K sites, Down-regulated / Acetyl-K sites, Up-regulated: Fig. 4C; for regulated Acetyl-K sites in Histone proteins / regulated Acetyl-K sites in Non-histone proteins: Fig. 4G; for percentage of Acetyl-K sites regulated: of 3618 quantified; for Number of proteins with 1 Acetyl-K site per protein / Number of proteins with 2 Acetyl-K sites per protein / Number of proteins with 3 Acetyl-K sites per protein / Number of proteins with 4 Acetyl-K sites per protein: distribution of acetylated sites in the acetylated proteins (Fig 4D)
Procedure: Cellular pellets were lysed for 15 min at 95 °C in 4% SDS, 100 mM Hepes/NaOH pH 8.0, containing 5 mM sodium butyrate and 5 mM Nicotinamide. After cooling down, lysates were incubated at 25 °C with 10 units of DNAse (Benzonase, Merk) and sonicated for 15 min in a Bioruptor for DNA shearing. Protein concentration was determined using microBCA, using BSA as standard. Samples were digested using on-bead protein aggregation capture (PAC) with ReSyn Biosciences MagReSyn® Hydoxyl microparticles (ratio Protein/Beads 1:5) in an automated King Fisher instrument (Thermo). Proteins were digested for 16 h at 37 C with LysC/Trypsin mix at a protein: enzyme ratio of 1:100 in 50 mM TEAB pH 8.0 (Trypsin Sequence grade, Sigma; LysC, Wako). The resulting peptides were speed-vac dried and dissolved in 100 µL of 200 mM HEPES pH 8.5.
Peptides (500 µg) were labeled with Thermo Scientific TMTpro 18plex™ Isobaric reagents for 1 h at 25 C. Reaction was quenched by adding 5% hydroxylamine for 15 min. Samples were pooled at a 1:1 ratio based on the total peptide amount, determined by comparing overall signal intensities on a regular LC-MS/MS run. The final mixture was desalted using a 500 mg Sep-Pak C18t cartridge (Waters) and dried prior to high pH reverse phase HPLC pre-fractionation.
Labeled peptides were fractionated offline through a high pH reverse phase chromatography using an Ultimate 3000 HPLC system equipped with a sample collector. Briefly, peptides were dissolved in 1200 µL of Buffer A (10 mM NH4OH) and loaded onto a XBridge BEH130 C18 column (3.5 µm, 250 mm length and 3.5 mm ID, Waters). Buffer B was composed of 10 mM NH4OH in 90% CH3CN. The following gradient was used at a flow rate of 500 µL/min: 0-50 min 0-25% B, 50-56 min 25-60% B, 56-57 min 60-90% B. One-minute fractions (500 µL) from […] were collected and neutralized with 10% formic acid. Based on the UV absorbance at 280 nm, 95% of the volume of 40 fractions was pooled in 5 fractions for Acetyl-Lysine enrichment. The 5% of these fractions was kept for proteome analysis. Pooled fractions were snap-frozen and lyophilized.
Lyophilized peptides (1.5 mg) from each pool were immuno-affinity purified with the PTMScan HS Acetyl-Lysine Motif (Ac−K) kit (Cell Signaling Technology). For each pool, three consecutive immuno-purifications (IPs) were performed using the manufacturer’s protocol in an automated King Fisher instrument (Thermo). Elution of purified peptides was performed in two consecutive steps of 50 μl of 0.15% TFA. Samples were desalted with C18 stage tips and eluates were vacuum dried and resuspended in 0.1% formic acid for subsequent analysis by LC−MS/MS.
LC-MS/MS was done by coupling an UltiMate 3000 RSLCnano LC system to an Orbitrap Exploris 480 mass spectrometer (Thermo Fisher Scientific). Samples were loaded into a trap column (Acclaim™ PepMap™ 100 C18 LC Columns 5 µm, 20 mm length) for 3 min at a flow rate of 10 µL/min in 0.1% FA. Peptides were then transferred to an EASY-Spray PepMap RSLC C18 column (Thermo) (2 µm, 75 µm x 50 cm) operated at 45 °C and separated using a 90 min effective gradient (buffer A: 0.1% FA; buffer B: 100% ACN, 0.1% FA) at a flow rate of 250 nL/min. The gradient used was, from 4% to 6% of buffer B the first 2 min, from 6% to 33% B the next 58 min, plus 10 additional minutes at 98% B.
The mass spectrometer was operated in a data-dependent mode, with an automatic switch between MS and MS/MS scans using a top 15 method. (Intensity threshold ≥ 1e4, dynamic exclusion of 20 sec and excluding charges unassigned, +1 and ≥ +7). MS spectra were acquired from 350 to 1500 m/z with a resolution of 60,000 FMHW (200 m/z). Ion peptides were isolated using a 0.7 Th window and fragmented using higher-energy collisional dissociation (HCD) with a normalized collision energy NCE of 36. MS/MS spectra were acquired with a fixed first mass of 120 m/z and a resolution of 45,000 FMHW (200 m/z). […]

M-O7e = test: Differentiation assay, CD11b / annexin-V flow cytometry; assay type: cell-based; settings: MO7e cell line; replicates 1-3 (Figure 2A);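 also: daily treatment at a GI50-based fraction of each compound's GI50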
Procedure: (§1) Next, the cells were washed twice with phosphate-buffered saline (PBS) and resuspended in 1X Binding Buffer at a concentration of 1 × 10^6 cells/mL. An 8-µL aliquot of APC-CD11b (BD Pharmingen, Franklin Lakes, NJ, USA) and 1 µL of FITC annexin-V (AV) (BD Pharmingen, Franklin Lakes, NJ, USA) antibodies were added and incubated for 15 min at room temperature in the dark. Finally, after the addition of 400 µL of 1X Binding Buffer to each tube, samples were collected on a BD FACSCanto flow cytometer (Becton Dickinson, San Jose, CA, USA) and analyzed using FlowJo software.

GF-D8 = test: as above; assay type: cell-based; settings: GF-D8 cell line; replicates 1-3 (Figure 2A);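 also: daily treatment at a GI50-based fraction of each compound's GI50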
Procedure: as §1

KASUMI-1 = test: as above; assay type: cell-based; settings: KASUMI-1 cell line; replicates 1-3 (Figure 2A);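 also: daily treatment at a GI50-based fraction of each compound's GI50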
Procedure: as §1

OCI-AML2 = test: as above; assay type: cell-based; settings: OCI-AML-2 cell line; replicates 1-3 (Figure 2A)
Procedure: as §1

TF-1 = test: as above; assay type: cell-based; settings: TF-1 cell line; replicates 1-3 (Figure 2A);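 also: daily treatment at a GI50-based fraction of each compound's GI50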
Procedure: as §1

UT-7 = test: as above; assay type: cell-based; settings: UT7 cell line; replicates 1-3 (Figure 2A)
Procedure: as §1

THP-1 = test: as above; assay type: cell-based; settings: THP-1 cell line; replicates 1-3 (Figure 2A)
Procedure: as §1

MONO-MAC-6 = test: as above; assay type: cell-based; settings: MONOMAC-6 cell line; replicates 1-3 (Figure 2A)
Procedure: as §1

[1] = ML-2, first (superseded) acetylome experiment, peer review file

| SMILES | Number of proteins with >5 Acetyl-K sites per protein (ML-2) | Acetyl-K sites regulated, Number, Histone proteins (ML-2) | Acetyl-K sites regulated, Number, Non-histone proteins (ML-2) | Acetyl-K sites regulated, Percentages, Histone proteins (ML-2) | Acetyl-K sites regulated, Percentages, Non-histone proteins (ML-2) | Acetyl-K sites: Down-regulated, % (ML-2) [%] | Acetyl-K sites: Down-regulated, Number (ML-2) | Acetyl-K sites: Non-regulated, % (ML-2) [%] | Acetyl-K sites: Non-regulated, Number (ML-2) | Acetyl-K sites: Quantified (total number) (ML-2) | Acetyl-K sites: Regulated, % (ML-2) [%] | Acetyl-K sites: Regulated, Number (ML-2) | Acetyl-K sites: Up-regulated, % (ML-2) [%] | Acetyl-K sites: Up-regulated, Number (ML-2) | fraction of regulated acetylation sites upregulated (ML-2; ML-2, 25% GI50, 12 h) [%] | Acetyl-K sites, Down-regulated (ML-2; ML-2, 25% GI50, 12 h) | Acetyl-K sites, Up-regulated (ML-2; ML-2, 25% GI50, 12 h) | regulated Acetyl-K sites in Histone proteins (ML-2; ML-2, 25% GI50, 12 h) | regulated Acetyl-K sites in Non-histone proteins (ML-2; ML-2, 25% GI50, 12 h) | percentage of Acetyl-K sites regulated (ML-2; ML-2, 25% GI50, 12 h) [%] | other results |
| --- | --- | --- | --- | --- | --- | --- | --- | --- | --- | --- | --- | --- | --- | --- | --- | --- | --- | --- | --- | --- | --- |
| COc1cc2nc(-c3cc(C)oc3C)cc(NCC3CCN(c4ncc(C(=O)NO)cn4)CC3)c2cc1OC [CM-1758, 2-[4-[[[2-(2,5-dimethyl-3-furyl)-6,7-dimethoxy-4-quinolyl]amino]methyl] -1-piperidyl]pyrimidine-5-carbohydroxamic acid] | 14 | 55 | 681 | 7.5 | 92.5 | 10.9 | 395 | 79.7 | 2882 | 3618 | 20.3 | 736 | 9.4 | 341 | 46.3 | 395 | 341 | 55 | 681 | 20.3 | acetyl K-sites regulated specifically by the compound (ML-2; [1]): 80; fraction of regulated acetylation sites upregulated (ML-2; [1]): 61.2%; Number of proteins with 1 Acetyl-K site per protein (ML-2): 381; Number of proteins with 2 Acetyl-K sites per protein (ML-2): 73; Number of proteins with 3 Acetyl-K sites per protein (ML-2): 31; Number of proteins with 4 Acetyl-K sites per protein (ML-2): 6; CD11b (%) (M-O7e): 17.02% and 15.8% and 12.9%; CD11b (%) (GF-D8): 27.3% and 20% and 28.6%; CD11b (%) (KASUMI-1): 24.2% and 19.4% and 12.5%; CD11b (%) (OCI-AML2): 39.01% and 39.3% and 37.1%; CD11b (%) (TF-1): 72.3% (2×) and 76.2%; CD11b (%) (UT-7): 21.8% and 25.6% and 23.1%; CD11b (%) (THP-1): 90.5% and 96.2% and 93.2%; CD11b (%) (MONO-MAC-6): 61.3% and 69.1% and 60.1% |
| COc1cc2nc(-c3ccc(C)o3)cc(NCC3CCN(c4ncc(C(=O)NO)cn4)CC3)c2cc1OC [CM-444, 2-[4-[[[6,7-dimethoxy-2-(5-methyl-2-furyl)-4-quinolyl]amino]methyl]-1-piperidyl]pyrimidine-5-carbohydroxamic acid] | 14 | 58 | 766 | 7 | 93 | 11.9 | 429 | 77.2 | 2794 | 3618 | 22.8 | 824 | 10.9 | 395 | 47.9 | 429 | 395 | 58 | 766 | 22.8 | acetyl K-sites regulated specifically by the compound (ML-2; [1]): 202; fraction of regulated acetylation sites upregulated (ML-2; [1]): 49.7%; Number of proteins with 1 Acetyl-K site per protein (ML-2): 421; Number of proteins with 2 Acetyl-K sites per protein (ML-2): 79; Number of proteins with 3 Acetyl-K sites per protein (ML-2): 29; Number of proteins with 4 Acetyl-K sites per protein (ML-2): 14; CD11b (%) (M-O7e): 5.2% and 11.2% and 10.9%; CD11b (%) (GF-D8): 26.5% and 25.8% and 22.1%; CD11b (%) (KASUMI-1): 16.9% and 10.6% and 19.6%; CD11b (%) (OCI-AML2): 21.1% and 24.6% and 20.5%; CD11b (%) (TF-1): 85.3% and 79.1% and 71.7%; CD11b (%) (UT-7): 16.8% and 20.4% and 21.0%; CD11b (%) (THP-1): 99.1% and 93.5% and 92.1%; CD11b (%) (MONO-MAC-6): 69.4% and 75.8% and 60.6% |
